What was measured:
Karpas-299 cells = test: sPD-L1 ELISA of supernatants of Karpas-299 cells treated with protease inhibitors; format: cell-based; conditions: Karpas-299, 1 MM-10 MM cells/ml, 24 hours, aderbasib 320 pM to 32 mM, FIG. 4F
Method: (§1) Several tumor cell lines were treated with PBS (placebo) or with various protease inhibitors, including matrix metalloprotease inhibitors TAPI-2 and TAPI-0, aspartic protease inhibitor Pepstatin, cysteine protease inhibitor E-64, serine protease inhibitor Aprotinin, combinations of these inhibitors, and an array of other matrix metalloprotease inhibitors. Cell supernatants were queried for sPD-L1 by ELISA as published elsewhere (Frigola et la., supra). In brief, paired mouse IgG2 monoclonal antibodies against extracellular rhB7-H1 were utilized in a capture-detection plate assay using biotinylation and HRP-streptavidin detection. […] Concentrations were determined by optical density measurements along a known standard curve of rhB7-H1. Karpas-299 cells were incubated at 10 MM cells per ml in cell culture media (RPMI plus FBS plus Penicillin/Streptomycin plus buffering reagents) over 24 hours in the presence of 1 μl/100 μl DMSO or PBS (placebo), TAPI-2 at 278 μM, Pepstatin at 206.5 μM, E-64 at 185 μM, or Aprotinin at 220 μM, or a combination of the above materials at various concentrations. […] All statistical analyses were performed using R! software. Two-sided, unpaired Student t tests assessed statistical differences in experimental groups except where otherwise indicated. P values indicate comparison to vehicle control groups. P<0.05 was considered statistically significant.
Subsequent studies were conducted in which Karpas-299 cells were incubated with different matrix metalloprotease inhibitors with varying specificities. For example, Karpas-299 cells were incubated at 10 MM cells per ml in cell culture media over 24 hours in the presence of 1 μl/100 μl DMSO (control), 50 μM TAPI-2, 50 μM TAPI-0, 50 μM GI254023X, 5 μM Ro 32-3555, 5 μM ARP 101, 50 μM UK 370106, 500 pM MMP-9 inhibitor I, 5 μM Doxycycline, or some combination thereof.
Aderbasib is a selective inhibitor of matrix metalloproteases ADAM10 and ADAM17. Karpas-299 cells were incubated at 1 MM-10 MM cells/ml and treated for 24 hours with concentrations of aderbasib ranging from 320 pM to […].
(§2) Karpas-299 lymphoma cells producing sB7-H1 were cultured with an array of protease inhibitors. Supernatants from these cultures were isolated and analyzed for sB7H1 concentration by ELISA. Subsequently, activated human CD8+ T cells were cultured with recombinant sB7H1 protein and cell survival was measured at 24 hours. CD8+ T cells also were cultured with sB7H1-rich tumor cell line supernatants versus sB7H1-depleted supernatants over 48 hours in the presence of placebo, low dose (10 nM), or high dose (1 μM) anti-PD-1 antibody pembrolizumab, and cell survival was measured.

[1] = system: Dul45 prostate cancer cells; test: sPD-L1 ELISA of supernatants of Dul45 prostate cancer cells; format: cell-based; conditions: FIG. 4C
Method: as §1
Further studies were conducted using different types of cells.

[2] = system: A786-0 (renal cell carcinoma) cells; test: sPD-L1 ELISA of supernatants of A786-0 cells treated with protease inhibitors; format: cell-based; conditions: A786-0 at 10 MM/ml; control DMSO 886 pg/ml; p=0.00018; n=5; FIG. 4E
Method: Tumor cells were treated with PBS (placebo) or with various protease inhibitors, including MMP inhibitors TAPI-2 and TAPI-0, aspartic protease inhibitor Pepstatin, cysteine protease inhibitor E-64, serine protease inhibitor Aprotinin, combinations of these inhibitors, and an array of other MMP inhibitors. Cell supernatants were queried for sPD-L1 by ELISA. FIG. 4A, Karpas-299 (lymphoma) cells were treated with the indicated protease inhibitors. FIG. 4B, A786-0 (renal cell carcinoma) cells were treated with the indicated protease inhibitors. FIG. 4C, Dul45 cells were treated with the indicated protease inhibitors. FIG. 4D, Mel-B7H1 (transgenic melanoma) cells were treated with the indicated protease or metalloprotease inhibitors. FIG. 4E is a graph plotting sPD-L1 production induced by interferon treatment or high cell titer in A786-0 cells. Cells grown at 1 MM/ml in control DMSO produced little sPD-L1. […] FIG. 4F is a graph plotting the amount of sPD-L1 in supernatants of Karpas-299 cells treated with control or with varying concentrations of the ADAM10/17 inhibitor aderbasib.
Several tumor cell lines were treated with PBS (placebo) or with various protease inhibitors, including matrix metalloprotease inhibitors TAPI-2 and TAPI-0, aspartic protease inhibitor Pepstatin, cysteine protease inhibitor E-64, serine protease inhibitor Aprotinin, combinations of these inhibitors, and an array of other matrix metalloprotease inhibitors. Cell supernatants were queried for sPD-L1 by ELISA as published elsewhere (Frigola et la., supra). In brief, paired mouse IgG2 monoclonal antibodies against extracellular rhB7-H1 were utilized in a capture-detection plate assay using biotinylation and HRP-streptavidin detection. […] Concentrations were determined by optical density measurements along a known standard curve of rhB7-H1. […] Two-sided, unpaired Student t tests assessed statistical differences in experimental groups except where otherwise indicated. […]

A549 cells [3] = test: sPD-L1 in supernatants of A549 cells treated with exogenous ADAM17; format: cell-based; conditions: exogenous ADAM17 vs PBS control, FIG. 4G
A549 cells [4] = test: PD-L1 flow cytometry of A549 cells; format: cell-based; conditions: vs DMSO, FIGS. 7C, 7D
Method: FIGS. 7A and 7B are flow cytometry plots and graphs showing that cell PD-L1 expression is restored by treatment with an inhibitor of ADAM10 and/or ADAM17, and is decreased by treatment with exogenous recombinant ADAM10 or ADAM17. Cells were incubated in the presence of the indicated treatments, and PD-L1 flow cytometry was performed.

CD8+ T cells [5] = test: CD8+ T cell survival with Karpas-299 supernatants, TMRE/Annexin-V flow cytometry; format: cell-based, human; conditions: for survival of CD8+ T cells: with Karpas-299 supernatant, FIG. 5C
Method: CD8+ T cells isolated from healthy subjects were incubated in the presence of 50% Karpas-299 supernatants of varying types and 50% fresh cell culture media. Supernatant types included sPD-L1-rich supernatants from Karpas-299 cells, supernatants from Karpas-299 cells treated with TAPI-0 to prevent sPL-L1 production, supernatants from Karpas-299 cells “spiked” with TAPI-0 after sPD-L1 production, and fresh culture media controls (FIG. 5C). Karpas-299 cell supernatants were generated by incubation at 10 MM cells/ml for 48 hours. TMRE/Annexin-V binding was measured by flow cytometry to assess the level of CD8+ T cell survival. Antibodies and reagents used for flow cytometry were Annexin-V-FITC, anti-mouse CD16/32 (BioLegend; San Diego, Calif.); anti-PD-L1, mouse isotype control (eBioScience/Thermo Fisher Scientific; Waltham, Mass.), TMRE-PE (Abcam; Cambridge, Mass.), BD Wash/Perm (Becton Dickenson; Waltham, Mass.). Flow cytometry was performed and analyzed using FlowJo (Treestar; Ashland, Oreg.).
CD8+ T cells were incubated with supernatants from Karpas-299 cells as above, plus varying doses of several anti-PD-1 antibodies.
as §2

CD8+ T cells [6] = test: CD8+ T cell survival with sPD-L1-rich Karpas-299 supernatant, with or without checkpoint inhibitors (trypan blue); format: cell-based, human; conditions: with sPD-L1-rich Karpas-299 supernatant, therapeutic doses of checkpoint inhibitor, n=3, FIG. 5B
Method: FIG. 5A is a graph plotting survival of CD8+ human T cells cocultured in the presence of PBS control or 5 μg/ml or 10 μg/ml recombinant sPD-L1. […] FIG. 5B is a graph plotting survival of CD8+ human T cells cultured in the presence of PBS control or sPD-L1-rich Karpas-299 cell line supernatant, in the presence or absence of PD1 or PD-L1 checkpoint inhibitors. Cell survival was measured by trypan blue staining. […] FIGS. 5C and 5D are a series of flow cytometry plots indicating survival of CD8+ T cells treated with various cell extracts and an anti-PD-1 antibody (nivolumab or pembrolizumab) or an anti-PD-L1 antibody (atezolizumab). FIG. 5C, CD8+ T cells isolated from healthy subjects were incubated with sPD-L1-rich supernatants from Karpas-299 cells, supernatants from Karpas-299 cells treated with inhibitor TAPI-0, supernatants from Karpas-299 cells “spiked” with TAPI-0 after isolation, and controls (top), and TMRE uptake/Annexin-V binding was measured by flow cytometry to assess the level of CD8+ T cell survival. CD8+ T cells also were incubated with supernatants from Karpas-299 cells, plus the indicated doses of anti-PD-1 and anti-PD-L1 antibodies (bottom). FIG. 5D, CD8+ T cells were incubated with PD-L1-rich supernatants from A787-0 RCC cells and the indicated concentrations of pembrolizumab. […]

CD8+ T cells [7] = test: CD8+ T cell survival with A786-0 supernatant plus pembrolizumab; format: cell-based, human; conditions: supernatants from A786-0 RCC cells (20% A786-0 supernatant), increasing concentrations; partial rescue; FIG. 5D
Method: FIG. 5A is a graph plotting survival of CD8+ human T cells cocultured in the presence of PBS control or 5 μg/ml or 10 μg/ml recombinant sPD-L1. […] FIG. 5B is a graph plotting survival of CD8+ human T cells cultured in the presence of PBS control or sPD-L1-rich Karpas-299 cell line supernatant, in the presence or absence of PD1 or PD-L1 checkpoint inhibitors. Cell survival was measured by trypan blue staining. […] FIGS. 5C and 5D are a series of flow cytometry plots indicating survival of CD8+ T cells treated with various cell extracts and an anti-PD-1 antibody (nivolumab or pembrolizumab) or an anti-PD-L1 antibody (atezolizumab). FIG. 5C, CD8+ T cells isolated from healthy subjects were incubated with sPD-L1-rich supernatants from Karpas-299 cells, supernatants from Karpas-299 cells treated with inhibitor TAPI-0, supernatants from Karpas-299 cells “spiked” with TAPI-0 after isolation, and controls (top), and TMRE uptake/Annexin-V binding was measured by flow cytometry to assess the level of CD8+ T cell survival. CD8+ T cells also were incubated with supernatants from Karpas-299 cells, plus the indicated doses of anti-PD-1 and anti-PD-L1 antibodies (bottom). FIG. 5D, CD8+ T cells were incubated with PD-L1-rich supernatants from A787-0 RCC cells and the indicated concentrations of pembrolizumab.
In brief, A786-0 cells were incubated at 10 MM cells/ml for 48 hours. […]

[8] = antibody at 1 μM, 1 μM pembrolizumab among the most effective

`COC(=O)N1CC2(CC2)C[C@H](C(=O)NO)[C@H]1C(=O)N1CCN(c2ccccc2)CC1` [aderbasib] was tested, and the “sPD-L1 production with increasing concentrations” value (Karpas-299 cells) was “decreasing concentrations of sPD-L1”, the “sPD-L1 production with increasing concentrations” value (Karpas-299 cells; listed as Aderbasib) was “reduces sPD-L1 production” and the “sPD-L1 secretion versus controls” value [1] was “significantly reduced”. For the same molecule, the “mean sPD-L1 production” value [2] was 276 pg/mL.

“ADAM17 (TACE): commercially-obtained, recombinant form of ADAM17 (TACE)” was tested, and the “detectable sPD-L1 secreted” value (A549 cells [3]) was “higher amounts” and the “PD-L1 expression (flow cytometry)” value (A549 cells [4]) was “decreased”.

In the case of “nivolumab: anti-PD-1 antibody, trade name OPDIVO”, the “survival of CD8+ T cells” value (CD8+ T cells [5]; [8]) is reported as “increased the survival” and the “rescue of CD8+ T cell survival” value (CD8+ T cells [6]) is reported as “did not rescue”.

With “pembrolizumab: humanized anti-PD-1 antibody, trade name KEYTRUDA” the “sB7-H1-containing supernatant-induced CD8+ T cell death” value (CD8+ T cells [5]; Example 3, 48 hours, high dose (1 μM)) was “decreased”, the “survival of CD8+ T cells” value (CD8+ T cells [5]; antibody at 10 nM) was “increased the survival” and the “survival of CD8+ T cells” value (CD8+ T cells [5]; [8]) was “increased the survival”. The “survival of CD8+ T cells” value (CD8+ T cells [7]) was “increased the survival” and the “rescue of CD8+ T cell survival” value (CD8+ T cells [6]) was “did not rescue”.

B1: ADAM10: exogenous recombinant ADAM10 (protein)
chain: TTSAEKNTCQLYIQTDHLFFKYYGTREAVIAQISSHVKAIDTIYQTTDFSGIRNISFMVKRIRINTTADEKDPTNPFRFPNIGVEKFLELNSEQNHDDYCLAYVFTDRDFDDGVLGLAWVGAPSGSSGGICEKSKLYSDGKKKSLNTGIITVQNYGSHVPPKVSHITFAHEVGHNFGSPHDSGTECTPGESKNLGQKENGNYIMYARATSGDKLNNNKFSLCSIRNISQVLEKKRNNCFVESGQPICGNGMVEQGEECDCGYSDQCKDECCFDANQPEGRKCKLKPGKQCSPSQGPCCTAQCAFKSKSEKCRDDSDCAREGICNGFTALCPASDPKPNFTDCNRHTQVCINGQCAGSICEKYGLEECTCASSDGKDDKELCHVCCMKKMDPSTCASTGSVQWSRHFSGRTITLQPGSPCNDFRGYCDVFMRCRLVDADGPLARLKKAIFSPELYENIAE
For B1, the “PD-L1 expression (flow cytometry)” value (A549 cells [4]) was “decreased”.

Reference: patent US20210361767A1, “RESCUING CANCER PATIENTS FROM RESISTANCE TO TREATMENT WITH INHIBITORS OF PD-1/PD-L1 INTERACTIONS” (Mayo Foundation for Medical Education and Research, priority 2018, published 2021)
